We go through eight compounds from patent US10781201B2, “Benzimidazole derivative having JNK inhibitory activity and use thereof” (INDUSTRY-UNIVERSITY COOPERATION FOUNDATION HANYANG …, priority 2017, dated 2020).

The test system of data set [1] is P-gp(MDR1)-overexpressing Caco-2-MDR1 cells. Nature of the data set: Evaluation of migration of blood-brain barrier (BBB migration evaluation system). It is filed as in vitro ADME. The note with it: class in words. The text has this: (§1) The blood-brain barrier (BBB) functions as a primary barrier to prevent the invasion of foreign substances, but acts as an obstacle to treatment in pathological circumstances. That is, therapeutics for the treatment of brain diseases or maintaining the condition thereof are very unlikely to permeate the blood-brain barrier, and thus are unable to be effectively used, and accordingly, the selection of drugs for the treatment of brain diseases is limited. […] […] amount of material permeating into mebrain, A: area, and C0: initial concentration of material)

The subject of a further data set is P-gp (MDR1). Described as above. As to conditions: human, Caco-2-MDR1 cells; for Papp A→B: apical to basolateral, read-out: A to B (permeability coefficient Papp); for Papp B→A: basolateral to apical, read-out: B to A (permeability coefficient Papp). It is filed as in vitro ADME.
Excerpt: as §1

A further data set deals with human JNK3 enzyme (Homo sapiens, UniProt P53779). Nature of the data set: Measurement of JNK3 enzymatic activity (33P-ATP filter-binding method). Type of data set: biochemical. As to conditions: ATP 10 μM, ATF2 3 μM. As to the method:
First, a substrate was added to a prepared base reaction buffer solution (20 mM Hepes (pH 7.5), 10 mM MgCl2, 1 mM EGTA, 0.02% Brij35, 0.02 mg/ml BSA, 0.1 mM Na3VO4, 2 mM DTT, 1% DMSO), a human JNK3 enzyme was added into the prepared substrate solution, and the resulting solution was mixed. ATP (10 μM) and ATF2 (3 μM) were used as substrates, and among them, ATP was used as a common substrate. Next, the compound according to the present invention dissolved in 100% DMSO was added to an enzyme reaction solution, and incubated at room temperature for 20 minutes. Subsequently, ^33P-ATP was added to the mixed reaction solution to initiate the reaction, followed by incubation at room temperature for 2 hours, and enzymatic activity was detected by a filter-binding method. Specifically, 25 al per resulting solution was slowly spotted on P81 paper and placed in a scintillation vial, and then the paper was washed four times with 0.75% phosphoric acid for 10 minutes each and washed once with acetone for 5 minutes. 5 ml of a scintillation cocktail was added to the scintillation vial and signals were read using a scintillation counter.

Data set [2] relates to Alzheimer's disease transgenic mice. Nature of the data set: Reducing concentration of APP and beta-amyloid oligomer in brain tissue, western blotting. It is filed as in vivo. As to conditions: IV 15 mg/kg/day three times per 1 week for a total of 2 weeks, compared to non-treated 2×TG(veh). The text has this: JNK3 is known to phosphorylate and activate amyloid precursor protein (APP), which is the main cause of Alzheimer's disease, to thus allow the APP to be located in a cell membrane, and promotes the conversion of APP to beta-amyloid, and it has been reported that, even in a case in which, after beta-amyloid is formed, the apoptosis of neurons is induced by toxicity thereof, the activation of JNK3 acts as a main cause. Based on these facts, in the present experimental example, the derivative of the present invention (compound 35d) was administered via intravenous injection (IV) to Alzheimer's disease transgenic mice in a dose of 15 mg/kg/day three times per 1 week for a total of 2 weeks, and then changes in the concentration of APP and beta-amyloid oligomer in the frontal lobe cortex were confirmed through western blotting. Meanwhile, normal mice (WT(veh)) were used as a control, and non-treated Alzheimer's disease transgenic mice (2×TG(veh)) were used as a comparative group.

Each structure is given as a SMILES string.

human JNK3 enzyme, sequence (P53779 whole entry): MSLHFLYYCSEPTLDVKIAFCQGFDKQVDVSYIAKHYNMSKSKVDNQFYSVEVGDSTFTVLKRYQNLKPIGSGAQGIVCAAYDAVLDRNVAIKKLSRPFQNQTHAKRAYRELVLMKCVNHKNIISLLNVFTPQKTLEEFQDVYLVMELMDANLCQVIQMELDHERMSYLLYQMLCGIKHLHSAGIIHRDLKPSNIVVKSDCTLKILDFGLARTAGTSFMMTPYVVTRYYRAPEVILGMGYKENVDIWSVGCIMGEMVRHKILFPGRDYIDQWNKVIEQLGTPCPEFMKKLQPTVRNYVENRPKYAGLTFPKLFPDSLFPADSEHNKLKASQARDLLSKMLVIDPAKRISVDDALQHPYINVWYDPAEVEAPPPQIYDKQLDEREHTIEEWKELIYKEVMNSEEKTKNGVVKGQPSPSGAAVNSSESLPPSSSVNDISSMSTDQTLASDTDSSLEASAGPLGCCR

As a reminder, the efflux ratio is a quotient of directional permeabilities that is used to spot active efflux. By Papp A→B is commonly meant how fast a substance crosses the layer from the apical side. One may read the Papp B→A as how fast a substance crosses the layer from the basolateral side. By IC50 is commonly meant the concentration that inhibits the measured activity by half. Regarding `O=C(C1CC1)N1CCC[C@H](Nc2nccc(-n3c(-c4ccc5c(c4)OCCO5)nc4ccc(O)cc43)n2)C1` [Compound 26c, (S)-cyclopropyl(3-((4-(2-(2,3-dihydrobenzo[b][1,4]dioxin-6-yl)-6-hydroxy-1H-benzo[d]imidazole-1-yl)pyrimidin-2-yl)amino)piperidine-1-yl)methanone], the Permeability result in data set [1] is “High”. Also, in the data set on P-gp (MDR1), the efflux ratio stood at 1.03, the Papp A→B was determined as 19.2 ×10⁻⁶ cm/s and the Papp B→A turned out to be 19.9 ×10⁻⁶ cm/s. Besides, at human JNK3 enzyme (Table 2), the IC50 is 30 to 100 nM.

With `O=C(C1CC1)N1CCC[C@H](Nc2nccc(-n3c(-c4ccc(F)c(C(F)(F)F)c4)nc4ccc(O)cc43)n2)C1` [Compound 26f, (S)-cyclopropyl(3-((4-(2-(4-fluoro-3-(trifluoromethyl)phenyl)-6-hydroxy-1H-benzo[d]imidazole-1-yl)pyrimidin-2-yl)amino)piperidine-1-yl)methanone], the IC50 on human JNK3 enzyme (Table 2) was in the range of 30 to 100 nM.

Consider `O=C(C1CC1)N1CCC[C@@H](Nc2nccc(-n3c(-c4ccc5ccccc5c4)nc4cc(O)c(O)cc43)n2)C1` [Compound 35a, (R)-cyclopropyl(3-(4-(5,6-dihydroxy-2-(naphthalene-2-yl)-1H-benzo[d]imidazole-1-yl)pyrimidin-2-ylamino)piperidine-1-yl)methanone], for which, at human JNK3 enzyme (Table 3), the concentration for half-maximal inhibition (IC50) was below 30 nM.

As for `O=C(C1CC1)N1CCC[C@@H](Nc2nccc(-n3c(-c4ccc(Cl)c(Cl)c4)nc4cc(O)c(O)cc43)n2)C1` [Compound 35b, (R)-cyclopropyl(3-(4-(2-(3,4-dichlorophenyl)-5,6-dihydroxy-1H-benzo[d]imidazole-1-yl)pyrimidin-2-ylamino)piperidine-1-yl)methanone], the IC50 on human JNK3 enzyme (Table 3) was below 30 nM.

The compound `O=C(C1CC1)N1CCC[C@@H](Nc2nccc(-n3c(-c4ccc(F)c(C(F)(F)F)c4)nc4cc(O)c(O)cc43)n2)C1` [Compound 35c, (R)-cyclopropyl(3-(4-(2-(4-fluoro-3-(trifluoromethyl)phenyl)-5,6-dihydroxy-1H-benzo[d]imidazole-1-yl)pyrimidin-2-ylamino)piperidine-1-yl)methanone] gave an IC50 on human JNK3 enzyme (Table 3) below 30 nM.

On to `O=C(C1CC1)N1CCC[C@@H](Nc2nccc(-n3c(-c4ccc5c(c4)OCCO5)nc4cc(O)c(O)cc43)n2)C1` [Compound 35d, (R)-cyclopropyl(3-(4-(2-(2,3-dihydrobenzo[b][1,4]dioxin-6-yl)-5,6-dihydroxy-1H-benzo[d]imidazole-1-yl)pyrimidin-2-ylamino)piperidine-1-yl)methanone], for which, in data set [2], the “concentration of beta-amyloid oligomer in the frontal lobe cortex” value is “significantly reduced” and the “expression level of APP in the frontal lobe cortex” value is given as “significantly reduced”. Besides, the Permeability entry in data set [1] is “High”. Besides, in the data set with P-gp (MDR1), the efflux ratio worked out at 1.13, the Papp A→B amounted to 17.3 ×10⁻⁶ cm/s and the Papp B→A turned out to be 19.6 ×10⁻⁶ cm/s. The same compound registered an IC50 on human JNK3 enzyme (Table 3) below 30 nM.

Regarding `O=C(C1CC1)N1CCC[C@@H](Nc2nccc(-n3c(-c4ccc5occc5c4)nc4cc(O)c(O)cc43)n2)C1` [Compound 35e, (R)-(3-(4-(2-(benzofuran-5-yl)-5,6-dihydroxy-1H-benzo[d]imidazole-1-yl)pyrimidin-2-ylamino)piperidine-1-yl)(cyclopropyl)methanone], the IC50 on human JNK3 enzyme (Table 3) was below 30 nM.

On to `Oc1c2ccccc2c2c3c(cccc13)N=N2` [SP600125, reference compound], for which the IC50 on human JNK3 enzyme (Table 1), at human JNK3 enzyme (Table 2) and on human JNK3 enzyme (Table 3) was 30 to 100 nM in each case.
